The record followed here is US11440880B2, “Thalidomide analogs and methods of use” (The USA, as represented by the Secretary, Department of …, priority 2015, dated 2022).

One series relates to RAW 264.7 cells. Put plainly: Cell viability (CellTiter 96 AQueous One) of LPS-challenged RAW 264.7 cells. It counts as cell-based, mouse. Also noted: key: NS=not significant; a “+” sign=anti-inflammatory or increased cell numbers; a “−” sign=cell toxicity or pro-inflammatory. The essentials:
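RAW 264.7 murine macrophages pretreated 1 h with compound or DMSO vehicle, then challenged with LPS (serotype 055:B5) at 30 or 60 ng/mL final for 24 h. After media replacement, viability measured by tetrazolium (MTS) conversion, absorbance at 490 nm, reported as O.D.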

The next series relates to TNF-α protein. Briefly: TNF-α protein level (ELISA) in LPS-challenged RAW 264.7 cells. It is filed as cell-based, mouse. The following applies: LPS 30 or 60 ng/mL, 24 h. Also noted: key: NS=not significant; a “+” sign=anti-inflammatory or increased cell numbers; a “−” sign=cell toxicity or pro-inflammatory. The essentials:
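RAW 264.7 cells pretreated 1 h with compound in DMSO vehicle, then challenged with LPS (30 or 60 ng/mL) for 24 h at 37° C. Conditioned-media nitrite by Griess (520 nm, sodium nitrite standard curve, 1.5 μM cutoff) in μM; mouse TNF-α by ELISA as pg/ml or % change from control.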
On the technique in general: In an ELISA, binding on a coated surface is turned into a signal by an enzyme label.

For the molecule `O=C1CCC(N2C(=O)c3cccc([N+](=O)[O-])c3C2=O)C(=O)N1` (centres unmarked) [Compound 5], the Viability result with RAW 264.7 cells (1 μM), in the series on RAW 264.7 cells (10 μM), with RAW 264.7 cells (30 μM), in the series with RAW 264.7 cells (60 μM) and in the series with RAW 264.7 cells (100 μM) was “NS” throughout. In addition, the TNF-α entry in the series with TNF-α protein (1 μM), in the series with TNF-α protein (10 μM), with TNF-α protein (30 μM), with TNF-α protein (60 μM) and in the series on TNF-α protein (100 μM) was “NS” in each case.
In the case of `O=C1NC(=S)CCC1N1C(=O)c2cccc([N+](=O)[O-])c2C1=O` (centres unmarked) [Compound 7, 2-(2-Oxo-6-thioxo-3-piperidinyl)-4-nitro-1H-isoindole-1,3(2H)-dione], the Viability result in the series with RAW 264.7 cells (1 μM) is “NS”; in the series on RAW 264.7 cells (10 μM) it was “NS”; in the series with RAW 264.7 cells (30 μM) it was “NS”; with RAW 264.7 cells (60 μM), “NS”; in the series on RAW 264.7 cells (100 μM), “+”. Besides, the TNF-α entry in the series on TNF-α protein (1 μM) is listed as “NS”; in the series on TNF-α protein (10 μM) it was “NS”; in the series on TNF-α protein (30 μM), “NS”; in the series with TNF-α protein (60 μM), “NS”; with TNF-α protein (100 μM) it was “+”.
With `Nc1cccc2c1CN(C1CCC(=O)NC1=O)C2=S` (centres unmarked) [Compound 29], the Viability result in the series on RAW 264.7 cells (3 μM), in the series with RAW 264.7 cells (10 μM) and in the series on RAW 264.7 cells (30 μM) was “−” in each case. Further, the TNF-α result in the series on TNF-α protein (3 μM), with TNF-α protein (10 μM) and in the series on TNF-α protein (30 μM) was “NS” throughout.
`Nc1cccc2c1CN(C13CC4CC(CC(C4)C1)C3)C2=O` [Compound 77, 2,3-Dihydro-4-amino-2-(tricyclo[3.3.1.1^3,7]dec-1-yl)-1H-isoindol-1-one]: the Viability result in the series with RAW 264.7 cells (1 μM), in the series with RAW 264.7 cells (10 μM) and in the series on RAW 264.7 cells (30 μM) was “NS” each time. Further, the TNF-α entry in the series with TNF-α protein (1 μM), with TNF-α protein (10 μM) and with TNF-α protein (30 μM) was “NS” throughout.
`CC(N1Cc2c(N)cccc2C1=O)C12CC3CC(CC(C3)C1)C2` (centres unmarked) [Compound 81]: the Viability result in the series with RAW 264.7 cells (1 μM), with RAW 264.7 cells (10 μM) and in the series with RAW 264.7 cells (30 μM) was “NS” in each case. Also, the TNF-α entry in the series on TNF-α protein (1 μM) is “NS”; in the series with TNF-α protein (10 μM), “NS”; in the series with TNF-α protein (30 μM), “+”.
For the molecule `O=C1c2ccccc2CN1C12CC3CC(CC(O)(C3)C1)C2` [Compound 86, 2,3-Dihydro-2-(tricyclo[3.3.1.1^3,7]dec-1-hydroxy-3-yl)-1H-isoindol-1-one], the Viability result in the series on RAW 264.7 cells (1 μM), in the series with RAW 264.7 cells (10 μM) and in the series with RAW 264.7 cells (30 μM) was “NS” in each case. Moreover, the TNF-α entry in the series on TNF-α protein (1 μM) is reported as “NS”; in the series with TNF-α protein (10 μM) it was “+”; in the series with TNF-α protein (30 μM) it was “+”.
